{
  "source": "patent US20230114241A1",
  "about": "“METHODS OF TREATING EPILEPSY USING THE SAME” (Trevena, Inc., priority 2019, published 2023)",
  "key": {"hERG channel": {"molecular_target": "hERG channel (Homo sapiens, UniProt Q12809)", "sequence (Q12809 whole entry)": "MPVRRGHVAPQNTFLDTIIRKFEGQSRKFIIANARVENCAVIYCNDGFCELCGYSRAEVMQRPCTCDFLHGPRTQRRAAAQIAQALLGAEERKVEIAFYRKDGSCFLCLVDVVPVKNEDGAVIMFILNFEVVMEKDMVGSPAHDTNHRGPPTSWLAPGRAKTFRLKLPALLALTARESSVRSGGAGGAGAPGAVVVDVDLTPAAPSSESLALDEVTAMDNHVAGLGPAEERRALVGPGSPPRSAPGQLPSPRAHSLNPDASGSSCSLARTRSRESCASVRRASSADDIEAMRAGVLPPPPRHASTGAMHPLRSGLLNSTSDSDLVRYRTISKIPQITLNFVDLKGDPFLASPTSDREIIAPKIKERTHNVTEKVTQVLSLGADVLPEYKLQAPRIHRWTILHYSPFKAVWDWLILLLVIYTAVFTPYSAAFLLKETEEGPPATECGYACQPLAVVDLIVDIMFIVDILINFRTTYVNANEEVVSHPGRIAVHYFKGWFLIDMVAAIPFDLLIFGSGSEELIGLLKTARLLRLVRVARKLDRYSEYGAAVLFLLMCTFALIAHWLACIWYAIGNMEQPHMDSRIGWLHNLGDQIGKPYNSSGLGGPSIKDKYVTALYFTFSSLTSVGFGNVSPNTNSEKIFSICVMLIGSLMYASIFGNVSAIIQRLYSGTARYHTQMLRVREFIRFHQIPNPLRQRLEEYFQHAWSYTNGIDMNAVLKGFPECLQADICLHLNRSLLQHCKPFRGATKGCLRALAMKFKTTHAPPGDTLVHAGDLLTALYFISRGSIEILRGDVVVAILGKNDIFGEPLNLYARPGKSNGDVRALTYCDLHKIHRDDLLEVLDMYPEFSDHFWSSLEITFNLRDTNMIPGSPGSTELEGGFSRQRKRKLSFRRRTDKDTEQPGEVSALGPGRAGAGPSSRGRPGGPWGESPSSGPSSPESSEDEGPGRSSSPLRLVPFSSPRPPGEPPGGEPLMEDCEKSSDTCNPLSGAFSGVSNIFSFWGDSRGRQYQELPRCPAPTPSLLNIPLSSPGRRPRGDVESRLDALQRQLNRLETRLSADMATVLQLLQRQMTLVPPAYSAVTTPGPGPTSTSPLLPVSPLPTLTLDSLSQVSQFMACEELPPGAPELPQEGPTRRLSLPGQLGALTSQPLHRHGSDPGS", "assay": "cell-based"}, "[1]": {"molecular_target": "T1, human sphingosine-1-phosphate receptor 1 (S1P1) (Homo sapiens, UniProt P21453)", "assay": "Inhibition of cAMP production (HTRF cAMP HiRange), S1P1 CHO-K1 cells", "type": "cell-based", "settings": "for EC50: inhibition of cAMP production, S1P1, read-out: hS1P1 CAMP pEC50 (converted)", "method_in_brief": "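CHO-K1 cells co-expressing human S1P1 (C-terminal ProLink tag) and EA-β-arrestin2, plated overnight; after 30 min compound incubation at 37 °C, intracellular cAMP measured by HTRF TR-FRET following 1 h at room temperature. Values normalized to fingolimod.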"}, "[2]": {"molecular_target": "T1, human sphingosine-1-phosphate receptor 1 (S1P1)", "assay": "β-Arrestin2 recruitment assay (PathHunter), S1P1 CHO-K1 cells", "type": "cell-based", "method_in_brief": "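CHO-K1 cells co-expressing EA-β-arrestin2 and ProLink-tagged human S1P1 plated overnight, then stimulated 60 min at 37 °C. Enzyme-fragment complementation (β-galactosidase) detected after 1 h at room temperature by luminescence; values normalized to fingolimod.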"}, "[3]": {"tested_on": "Corneal Kindled Seizure Model", "assay": "Corneal Kindled Seizure Model (CKM), mouse", "type": "in vivo", "set-up": "key to Average Seizure Scores: seizure stage score; Stage 5 = rearing and falling, generalized clonic seizure", "description": "Compounds are tested for efficacy in Corneal Kindled Seizure Model (CKM) Mouse. The pharmacological profile of the corneal kindled mouse is consistent with human partial epilepsy and effectively identifies the anticonvulsant potential of useful compounds for this condition, such as levetiracetam. Male C57BL/6 mice are kindled electrically with 3 sec stimulation, 3 mA, 60 Hz, and corneal electrodes to a criterion of 5 consecutive Stage 5 seizures (facial clonus and head nodding progressing to forelimb clonus, and finally rearing and falling accompanied by a generalized clonic seizure). After receiving twice daily corneal stimulations, mice typically reach the first Stage 5 seizure between approximately 10-14 days. […] Fully kindled mice are then stimulated every-other day until all other mice within the group reach the criterion of 5 consecutive Stage 5 seizures. Any mouse not achieving the fully kindled state is not included in any evaluation of investigational compounds. Testing of investigational compounds commences at least 5-7 days after the last stimulation. Mice are stimulated on the day prior to any drug evaluation to ensure that all mice to be used in the drug study will present with a Stage 5 seizure. […] After testing, the corneal kindled animals are returned to their home cage. Unlike the acute seizure tests conducted by the ETSP, each corneal kindled mouse is allowed at least 3-4 days between tests to “washout” any investigational compound after testing. Compound 469 was tested in the method described in Example 5. The data for Compound 469 is illustrated in Tables 1-4."}, "[4]": {"tested_on": "peripheral blood lymphocytes", "assay": "Lymphopenia: peripheral blood lymphocyte counts, acute and chronic s.c. dosing", "type": "in vivo", "settings": "3.7 mg/kg sc, 3 days, c57bl/6 mice", "description": "Compounds were tested for changes in peripheral blood lymphocytes in C57bl/6 mice. In acute studies, animals (n=5/group) were dosed subcutaneously with test compound at a dose of 3 mg/kg. Animals were sacrificed at specific time points and […] of whole blood was collected in EDTA (K2) Eppendorf tubes. Blood was stored on ice and shipped immediately overnight delivery to Charles River Laboratories for analysis. CRL ran samples through their WBC/differential panel on an Advia 120 instrument. We received peripheral lymphocyte counts (10^3 cells/μl) for each blood sample. Treatment group means were compared to a vehicle treatment group for statistical significance. In chronic studies, animals (n=6-8/group) were dosed subcutaneously for three to seven days with test compound at doses that were at least 5-fold higher than the efficacious dose in pharmacology/behavioral assays. On the last day, animals were sacrificed 45 minutes to 6 hrs after the final dose. Whole blood was collected and analyzed as described for acute studies. […]"}, "[5]": {"settings": "3 mg/kg s.c., 0.5 hour, Experiment 1"}, "[6]": {"settings": "3 mg/kg s.c., 1 hour, Experiment 1"}, "[7]": {"settings": "5 mg/kg s.c., 0.5 hour, Experiment 1"}, "[8]": {"settings": "5 mg/kg s.c., 1 hour, Experiment 1"}},
  "data": [
    {"compound": "CC(C)Oc1ccc(-c2ncc(-c3ccnc(O)c3)cn2)cc1C#N", "note": "[Compound 744, 5-(5-(2-hydroxy-pyridin-4-yl)pyrimidin-2-yl)-2-isopropoxy-benzonitrile]", "values": [
      {"measurement": "IC50", "setting": "hERG channel", "value": "> 10", "unit": "µM"}
    ]},
    {"compound": "N#Cc1cc(-c2nc(-c3ccc4c(c3)NC(=O)C4)no2)ccc1NCC1CC1", "note": "[Compound 497, 2-((cyclopropyl-methyl)amino)-5-(3-(2-oxoindolin-6-yl)-1,2,4-oxadiazol-5-yl)benzonitrile]", "values": [
      {"measurement": "Emax", "setting": "[1]; CHO-K1, efficacy normalized to maximum efficacy of fingolimod, read-out: hS1P1 CAMP SPAN", "value": "> 75", "unit": "%"},
      {"measurement": "EC50", "setting": "[1]", "value": "< 0.316", "unit": "µM"},
      {"measurement": "Emax", "setting": "[2]; CHO-K1, efficacy normalized to maximum efficacy of fingolimod, read-out: hS1P1 B-arrestin2 SPAN", "value": "> 75", "unit": "%"},
      {"measurement": "EC50", "setting": "[2]; β-arrestin2 recruitment, S1P1, read-out: hS1P1 B-arrestin2 pEC50 (converted)", "value": "< 10", "unit": "µM"},
      {"measurement": "IC50", "setting": "hERG channel", "value": "> 10", "unit": "µM"}
    ]},
    {"compound": "CC(C)Nc1ccc(-c2ncc(-c3ccnc(O)c3)cn2)cc1C#N", "note": "[Compound 743, 5-(5-(2-hydroxy-pyridin-4-yl)pyrimidin-2-yl)-2-(isopropyl-amino)benzonitrile]", "values": [
      {"measurement": "IC50", "setting": "hERG channel", "value": "> 10", "unit": "µM"}
    ]},
    {"compound": "CC(C)Oc1ccc(-c2ncc(-c3ccccn3)cn2)cc1C#N", "note": "[Compound 742, 2-isopropoxy-5-(5-(pyridin-2-yl)pyrimidin-2-yl)benzonitrile]", "values": [
      {"measurement": "IC50", "setting": "hERG channel", "value": "> 10", "unit": "µM"}
    ]},
    {"compound": "CCC1(CC)CC(=O)c2cc(-c3nc(-c4cn[nH]c4)no3)ccc2O1", "note": "[Compound 469, 6-(3-(1H-pyrazol-4-yl)-1,2,4-oxadiazol-5-yl)-2,2-diethyl-chroman-4-one]", "values": [
      {"measurement": "EC50", "setting": "[1]", "value": "< 0.316", "unit": "µM"},
      {"measurement": "Average Seizure Scores", "setting": "[3]; 1 mg/kg, 2 hrs, Experiment 2", "value": 3.25},
      {"measurement": "N/F (number of animals protected / total number tested)", "setting": "[3]; 1 mg/kg, 2 hrs, Experiment 2", "value": "1/8"},
      {"measurement": "Average Seizure Scores", "setting": "[3]; 2.5 mg/kg, 2 hrs, Experiment 2", "value": 3.38},
      {"measurement": "N/F (number of animals protected / total number tested)", "setting": "[3]; 2.5 mg/kg, 2 hrs, Experiment 2", "value": "2/8"},
      {"measurement": "Average Seizure Scores", "setting": "[3]; [5]", "value": 4.5},
      {"measurement": "N/F (number of animals protected / total number tested)", "setting": "[3]; [5]", "value": "0/8"},
      {"measurement": "Average Seizure Scores", "setting": "[3]; [6]", "value": 3.38},
      {"measurement": "N/F (number of animals protected / total number tested)", "setting": "[3]; [6]", "value": "1/8"},
      {"measurement": "Average Seizure Scores", "setting": "[3]; [7]", "value": 4},
      {"measurement": "N/F (number of animals protected / total number tested)", "setting": "[3]; [7]", "value": "0/8"},
      {"measurement": "Average Seizure Scores", "setting": "[3]; [8]", "value": 3.38},
      {"measurement": "N/F (number of animals protected / total number tested)", "setting": "[3]; [8]", "value": "1/8"},
      {"measurement": "Average Seizure Scores", "setting": "[3]; 5 mg/kg, 2 hrs, Experiment 2", "value": 2.5},
      {"measurement": "N/F (number of animals protected / total number tested)", "setting": "[3]; 5 mg/kg, 2 hrs, Experiment 2", "value": "3/8"},
      {"measurement": "Average Seizure Scores", "setting": "[3]; 10 mg/kg, 1 hour", "value": 2.38},
      {"measurement": "N/F (number of animals protected / total number tested)", "setting": "[3]; 10 mg/kg, 1 hour", "value": "2/8"},
      {"measurement": "Average Seizure Scores", "setting": "[3]; 10 mg/kg, 2 hrs", "value": 0.63},
      {"measurement": "N/F (number of animals protected / total number tested)", "setting": "[3]; 10 mg/kg, 2 hrs", "value": "7/8"},
      {"measurement": "effect on seizures", "setting": "[3]; Corneal Kindled Seizure Model, mouse", "value": "can reduce seizures"},
      {"measurement": "ED50", "setting": "[3]; Corneal Kindled Seizure Model, mouse, 2 hrs time point", "value": 6.2, "unit": "mg/kg"},
      {"measurement": "Lymphopenia effect (peripheral blood lymphocytes)", "setting": "[4]", "value": "no change: 3.7 mg/kg, 3 days"}
    ]}
  ]
}
